SMILES | melting point
COc1cc2c(Nc3ccc(C)c(O)c3)ncnc2cc1OCc1ccncc1.Cl | 249 to 251 °C
COc1cc2c(Nc3ccc(C)c(O)c3)ncnc2cc1OCc1c(C)noc1C.Cl | 252 to 254 °C
COc1cc2c(Nc3ccc(C)c(O)c3)ncnc2cc1OCCCc1ccncc1.Cl | 278 to 282 °C
COc1cc2c(Nc3cc(O)c(C)cc3F)ncnc2cc1OCCCc1ccncc1.Cl | 246 to 248 °C
COc1cc2c(Nc3cc(O)c(C)cc3F)ncnc2cc1OCc1ccncc1.Cl | 257 to 260 °C
COc1cc2c(Nc3cc(O)c(C)cc3F)ncnc2cc1OCc1ccccc1.Cl | 294 to 298 °C
COc1cc2c(Nc3ccc(Cl)cc3F)ncnc2cc1OCc1csc(C)n1.Cl | 220 to 225 °C
COc1cc2c(Nc3cc(O)c(C)cc3F)ncnc2cc1OCCn1ccnc1.Cl | 195 to 220 °C
COc1cc2c(Nc3cc(O)c(C)cc3F)ncnc2cc1OCc1ccc(C#N)cc1.Cl | 265 to 270 °C
COc1cc2c(Nc3ccc(Cl)cc3F)ncnc2cc1OCCc1ccncc1.Cl | 189 to 191 °C
COc1cc2c(Nc3ccc(Cl)cc3F)ncnc2cc1OCc1cccnc1.Cl | 216 to 221 °C
COc1cc2c(Nc3ccc(C)c(O)c3)ncnc2cc1OCc1ccccn1.Cl | 236 to 238 °C
COc1cc2c(Nc3ccc(Cl)cc3F)ncnc2cc1OCCc1nccn1C.Cl | 224 to 229 °C
COc1cc2c(Nc3ccc(Cl)cc3F)ncnc2cc1OCc1ccncn1.Cl | 237 to 239 °C
COc1cc2c(Nc3ccc(Cl)cc3F)ncnc2cc1OCCCN(C)c1ccncc1.Cl | 243 to 248 °C
COc1cc2c(Nc3ccc(Cl)cc3F)ncnc2cc1OCCN(C)c1ncccn1.Cl | 194 to 196 °C
COc1cc2c(Nc3cc(O)c(C)cc3F)ncnc2cc1OCc1ccnc(Cl)c1.Cl | 245 to 250 °C
COc1cc2c(Nc3ccc(C)c(O)c3)ncnc2cc1OCc1nccn1C.Cl | 257 to 260 °C
COc1cc2c(Nc3ccc(Cl)cc3F)ncnc2cc1OCc1cc(Cl)[nH]c(=O)c1.Cl | 271 to 273 °C (dec.)
COc1cc2c(Nc3ccc(C)c(O)c3)ncnc2cc1OCc1csc(C)n1.Cl | 243 to 245 °C
Cl.Oc1cc(Nc2ncnc3cc(OCc4ccccc4)ccc23)c(F)cc1Cl | 253 to 257 °C
COc1cc2c(Nc3cc(O)c(Cl)cc3F)ncnc2cc1OCc1ccsc1.Cl | 277 to 281 °C
COc1cc2c(Nc3ccc(C)c(O)c3)ncnc2cc1OCc1ccsc1.Cl | 246 to 248 °C

SMILES | melting point
COc1cc2c(Nc3ccc(Cl)cc3F)ncnc2cc1OCc1csc(NC(C)=O)n1.Cl | 194 to 202 °C
COc1cc2c(Nc3ccc(C)c(O)c3)ncnc2cc1OCc1csc(NC(C)=O)n1.Cl | 202 to 204 °C
COc1cc2c(Nc3ccc(Cl)cc3F)ncnc2cc1OCc1ccnc(N(C)C)c1.Cl | 290 °C
COc1cc2c(Nc3ccc(C)c(OC(C)=O)c3)ncnc2cc1OCc1cccnc1 [Example 2, 4-(3-acetoxy-4-methylanilino)-6-methoxy-7-(3-pyridylmethoxy)quinazoline] | 113 to 115 °C
COc1cc2c(Nc3ccc(C)c(O)c3)ncnc2cc1OCc1cccnc1 [Example 3, 4-(3-hydroxy-4-methylanilino)-6-methoxy-7-(3-pyridylmethoxy)quinazoline] | 258 to 259 °C
COc1cc2c(Nc3ccc(C)c(O)c3)ncnc2cc1OCc1ccncn1 [Example 5, 4-(3-hydroxy-4-methylanilino)-6-methoxy-7-(pyrimidin-4-ylmethoxy)quinazoline] | 290 to 291 °C
COc1cc2c(Nc3ccc(Cl)cc3F)ncnc2cc1OCCOc1ccncc1 [Example 17, 4-(4-chloro-2-fluoroanilino)-6-methoxy-7-(2-(4-pyridyloxy)ethoxy)quinazoline] | 200 to 202 °C
COc1cc2c(Nc3ccc(Cl)cc3F)ncnc2cc1OCCn1ccccc1=O [Example 18, 4-(4-chloro-2-fluoroanilino)-6-methoxy-7-[2-(2-oxo-1,2-dihydro-1-pyridyl)ethoxy]quinazoline] | 209 to 211 °C
COc1cc2c(Nc3ccc(Cl)cc3F)ncnc2cc1OCCCn1ccc(=O)cc1 [Example 19, 4-(4-chloro-2-fluoroanilino)-6-methoxy-7-[3-(4-oxo-1,4-dihydro-1-pyridyl)propoxy]quinazoline] | > 250 °C
COc1cc2c(Nc3ccc(Cl)cc3F)ncnc2cc1OCc1ccccn1 [Example 39, 4-(4-chloro-2-fluoroanilino)-6-methoxy-7-((2-pyridyl)methoxy)quinazoline] | 215 to 218 °C
COc1cc2c(Oc3ccc(Cl)cc3F)ncnc2cc1OCc1ccncc1 [Example 44, 4-(4-chloro-2-fluorophenoxy)-6-methoxy-7-((4-pyridyl)methoxy)quinazoline] | 197 to 198 °C
COc1cc2c(Nc3ccc(Cl)cc3F)ncnc2cc1OCCN(C)c1cc(C)nc(C)c1 [Example 46, 4-(4-chloro-2-fluoroanilino)-7-(2-(N-(2,6-dimethyl-4-pyridyl)-N-methylamino)ethoxy)-6-methoxyquinazoline] | 208 to 212 °C
COc1cc2c(Nc3ccc(Cl)cc3F)ncnc2cc1OCc1ccnc(Br)c1 [Example 59, 7-((2-bromo-4-pyridyl)methoxy)-4-(4-chloro-2-fluoroanilino)-6-methoxyquinazoline] | 210 to 212 °C
COc1cc2c(Nc3ccc(Cl)cc3F)ncnc2cc1OCc1ccnc(C#N)c1 [Example 60, 4-(4-chloro-2-fluoroanilino)-7-((2-cyano-4-pyridyl)methoxy)-6-methoxyquinazoline] | 209 to 213 °C
COc1cc(COc2cc3ncnc(Nc4ccc(Cl)cc4F)c3cc2OC)ccn1 [Example 62, 4-(4-chloro-2-fluoroanilino)-7-((2-methoxy-4-pyridyl)methoxy)-6-methoxyquinazoline] | 202 to 204 °C
COc1cc2c(Nc3ccc(Cl)cc3F)ncnc2cc1OCc1ccnc(C)c1 [Example 63, 4-(4-chloro-2-fluoroanilino)-6-methoxy-7-((2-methyl-4-pyridyl)methoxy)quinazoline] | 221 to 224 °C
COc1cc2c(Nc3ccc(Cl)cc3F)ncnc2cc1OCCCn1ccccc1=O [Example 65, 4-(4-chloro-2-fluoroanilino)-6-methoxy-7-(3-(2-oxo-1,2-dihydro-1-pyridyl)propoxy)quinazoline] | 216 to 218 °C
COc1cc2c(Nc3ccc(Cl)cc3F)ncnc2cc1OCCCSc1nccn1C [Example 66, 4-(4-chloro-2-fluoroanilino)-6-methoxy-7-(3-(1-methylimidazol-2-ylthio)propoxy)quinazoline] | 199 to 201 °C
COc1cc2c(Nc3ccc(Cl)cc3F)ncnc2cc1OCCCOc1ccncc1 [Example 67, 4-(4-chloro-2-fluoroanilino)-6-methoxy-7-(3-(4-pyridyloxy)propoxy)quinazoline] | 138 to 140 °C
COc1cc2c(Nc3ccc(Cl)cc3F)ncnc2cc1OCCSc1ccncc1 [Example 68, 4-(4-chloro-2-fluoroanilino)-6-methoxy-7-(2-(4-pyridylthio)ethoxy)quinazoline] | 182 to 186 °C
COc1cc2c(Nc3ccc(Cl)cc3F)ncnc2cc1OCCOc1cccnc1 [Example 69, 4-(4-chloro-2-fluoroanilino)-6-methoxy-7-(2-(3-pyridyloxy)ethoxy)quinazoline] | 188 to 190 °C
CCOC(=O)c1cc(COc2cc3ncnc(Nc4ccc(Cl)cc4F)c3cc2OC)ccn1 [Example 93, 4-(4-chloro-2-fluoroanilino)-7-(2-ethoxycarbonylpyrid-4-yl)methoxy-6-methoxyquinazoline] | 212 to 214 °C

Reference: patent publication US6362336B1, “Chemical compounds” (Zeneca Limited, priority 1995, dated 2002)
